According to patent publication US20130130306A1, “ZN (II) BASED COLORIMETRIC SENSOR AND PROCESS FOR THE PREPARATION THEREOF” (COUNCIL OF SCIENTIFIC & INDUSTRIAL RESEARCH, priority 2010, published 2013):

Key:
[1] = Spectrophotometric titration, inclusion complex formation with α-CD; format: binding; conditions: α-CD 0-2.3 mM
Protocol: Preliminary spectral studies reveal that absorption maxima for L.Zn (Scheme 1, Formula 1A) (463 nm) tend to shift to shorter wavelength (458 nm) on addition of aqueous solution of α-CD (0-2.3 mM) in excess to the […] solution of L.Zn (Scheme 1, Formula 1A). Formation of host-guest type inclusion complex on addition of trans-1,2-bis-(4-pyridyl)ethylene, 4,4′-azopyridine (AZP) and some related bipyridine/biphenyl molecules in α-CD is reported by several researcher (Shukla, A. D.; Bajaj, H. C.; Das, A. Angew. Chem. Int. Ed. 2001, 40, 446.; Shukla, A. D.; Bajaj, H. C., Das, A. Nat. Acad. Science, 2002, 114, 431.; Beer, A. J.; Macartney, D. H. Inorg. Chem. 2000, 39, 1410.; Macartney, D. H.; Waddling, C. A.; Inorg. Chem. 1994, 33, 5912.; Philip, D.; Stoddart, J. F. Angew. Chem. Int. Ed. 1996, 35, 1154). It is also reported that inclusion in these compounds in the CD cavity influences the HOMO-LUMO energy gap and there by the absorption spectral bands-though the perturbation of the energy levels are not reported to be an appreciable one. Thus, in this present study, the observed shift of 5 nm could be attributed to the inclusion phenomena and the formation of a pseudo-rotaxane complex.
General formula that was used for calculating the binding constants from UV-vis titrations is given below:
Binding Constant,K=[L.Zn.CD]/{[L.Zn]free[CD]free} (5) […]

[2] = tested on: eukaryotic and prokaryotic (Gram +ve/Gram −ve) cells; assay: Staining of eukaryotic and prokaryotic cells, time needed and differentiation; format: cell-based
Protocol: Using the present Zn(II)-reagent (L.Zn) in presence of α-CD, eukaryotic and prokaryotic (Gram +ve/Gram −ve) cells could be stained with only 2 minutes incubation; while for the previous reagent (1.Zn) cells were needed to be incubated for 10 minutes for color development. Further, intensity of color of the stained cell (using present Zn(II)-complex was much more intense as compared to that reported earlier.
We also explored the possibility of using L.Zn/L.Zn.α-CD as the staining agent for prokaryotes (Gram +ve and Gram −ve bacterial cells). […] As expected stained cells for Gram +ve bacteria appeared longer as compared to those of the stained Gram −ve bacteria. The difference in the staining intensity for two different bacteria with the L.Zn.α-CD (Scheme 2) could be much better understood after going into the depth of cell biology of each bacterial cells and the detailed biochemistry involved while staining; besides, difference in cell structure and cell wall composition of the respective bacteria. […] Changes on the cell surfaces on binding of the dye, L.Zn (Scheme 1, Formula 1A) were also evident from the SEM images recorded for Gram −ve and Gram +ve bacteria, in absence and presence of staining agent (FIGS. 11C to 11F). […] The growth profile of Eukaryotic Yeast cells (Saccharomyces cerevisiae) and Prokaryotic bacterial cells ([…]) in an aqueous culture medium in absence and presence of L.Zn (Scheme 1, Formula 1A) are shown in FIG. 12. Change in absorbance (at λmax=600 nm) vs time (t) was plotted up to 30 h; as no appreciable change in growth was observed thereafter. […] FIGS. 12a, 12c and 12e show the actual growth curve of Saccharomyces cerevisiae, Pseudomonas fluorescence and Bacillus megaterium, respectively with time. While, FIGS. 12b, 12d and 12f show relative build up of ATP in cytoplasm with time for Saccharomyces cerevisiae, Pseudomonas fluorescence and Bacillus megaterium, respectively in presence of L.Zn (Scheme 1, Formula 1A) (D1) and L.Zn.α-CD (Scheme 2) (D2). […]

## CN(C)c1ccc(N=Nc2ccc(S(=O)(=O)N3CCCNCCNCCCNCC3)cc2)cc1.O=[N+]([O-])[O-].O=[N+]([O-])[O-].[Zn+2] [L.Zn]
[1]; aqueous solution
  association constant of inclusion complex with α-CD: 255 (+15) M^−1
[1]; aqueous solution (as printed in b187)
  association constant of inclusion complex with α-CD: 255 (±15) M^1
[2]; in presence of α-CD
  incubation time needed for staining: 2 min
[2]; through different color intensities and shape of the stained cells
  distinguishing Gram +ve and Gram −ve bacteria: could also distinguish Gram +ve and Gram −ve bacteria
[2]; without α-CD
  time in which staining takes place: 10 to 20 min
